# Reference: ChEMBL document CHEMBL1143522, “Antimalarial benzo[c]phenanthridines” (Bioorg Med Chem Lett, 2005)
# Legend:
# Plasmodium falciparum [1] = experiment: […] against Plasmodium falciparum strains K39 and V1/S; format: functional
# Plasmodium falciparum [2] = experiment: In vitro inhibitory concentration against chloroquine-sensitive Plasmodium falciparum K39; format: functional, organism-based
# Plasmodium falciparum [3] = experiment: In vitro inhibitory concentration against chloroquine-resistant Plasmodium falciparum V1/S; format: functional, organism-based
# [4] = In vitro toxicity against B82 fibroblast cells; format: cell-based; conditions: mouse, read-out: LD50 (the source's name)
# Plasmodium falciparum [5] = experiment: In vitro inhibition against chloroquine-sensitive Plasmodium falciparum K39; Range 0.1-0.4 uM; format: functional, organism-based
# Plasmodium falciparum [6] = experiment: In vitro inhibition against chloroquine-resistant Plasmodium falciparum V1/S; Range 0.1-0.4 uM; format: functional, organism-based
Compound,Ratio (Plasmodium falciparum [1]),IC50 (Plasmodium falciparum [2]),IC50 (Plasmodium falciparum [3]),CC50 [4],IC50 (Plasmodium falciparum [5]),IC50 (Plasmodium falciparum [6])
CCOc1cc2ccc3c4cc(OC)c(OC)cc4c[n+](C)c3c2cc1OC.CS(=O)(=O)[O-],0.9,800 nM,740 nM,–,–,–
CCOc1cc2c3cc(OC)c(OC)cc3c[n+](CC)c2c2cc(OC)c(OC)cc12.[I-],1.4,40 nM,50 nM,3.2 µg/mL,–,–
COc1cc2c[n+](C)c3c4cc(OC)c(OC)cc4ccc3c2cc1OC.CS(=O)(=O)[O-],4.2,70 nM,300 nM,–,–,–
COc1cc2c(ccc3c4cc(OC)c(OC)cc4c[n+](C)c23)cc1O.CS(=O)(=O)[O-],0.8,2300 nM,1800 nM,–,–,–
COc1cc2c[n+](C)c3c4cc(OC)c(OC)cc4c4occc4c3c2cc1OC.CS(=O)(=O)[O-],11.3,9 nM,110 nM,–,–,–
CC[n+]1cc2cc(OC)c(OC)cc2c2ccc3cc(OC)c(OC)cc3c21.[I-],1.3,90 nM,120 nM,–,–,–
COc1cc2c[n+](C)c3c4cc5c(cc4ccc3c2cc1OC)OCO5 [NITIDINE CHLORIDE],–,–,–,–,400 nM,400 nM
COc1cc2c[n+](C)c3c4cc(OC)c(OC)cc4c(OCC4OCC(Br)([N+](=O)[O-])CO4)cc3c2cc1OC.CS(=O)(=O)[O-] (stereo not drawn),1.9,1000 nM,1840 nM,–,–,–
CCOc1cc2c3cc(OC)c(OC)cc3c[n+](C)c2c2cc(OC)c(O)cc12.CS(=O)(=O)[O-],1,120 nM,120 nM,–,–,–
COc1cc2ccc3c4cc(OC)c(SC)cc4c[n+](C)c3c2cc1OC.CS(=O)(=O)[O-],4.7,190 nM,900 nM,–,–,–
CCOc1cc2c3cc(OC)c(OC)cc3c[n+](C)c2c2cc(OC)c(OC)cc12.CS(=O)(=O)[O-],1,260 nM,260 nM,–,–,–
